13 compounds from ChEMBL document CHEMBL1201862, “PubChem BioAssay data set” (2004) can be followed below.

SMILES strings stand for the structures. The source made the active and inactive calls.

Experiment [1] concerns the target T1, Orexin/Hypocretin receptor type 1 (Homo sapiens, UniProt O43613).
T1 sequence (O43613 whole entry): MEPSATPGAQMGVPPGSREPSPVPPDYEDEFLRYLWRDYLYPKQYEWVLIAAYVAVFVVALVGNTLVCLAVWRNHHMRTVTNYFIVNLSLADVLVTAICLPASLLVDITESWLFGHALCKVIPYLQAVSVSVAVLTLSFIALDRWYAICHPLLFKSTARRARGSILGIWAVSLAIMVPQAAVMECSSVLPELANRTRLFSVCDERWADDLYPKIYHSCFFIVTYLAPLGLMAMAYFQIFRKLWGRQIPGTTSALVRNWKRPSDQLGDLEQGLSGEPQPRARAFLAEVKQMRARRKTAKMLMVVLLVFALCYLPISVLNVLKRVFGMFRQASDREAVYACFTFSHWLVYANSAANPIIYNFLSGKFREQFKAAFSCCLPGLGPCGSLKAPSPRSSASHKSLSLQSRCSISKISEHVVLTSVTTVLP
Description: Homogeneous Time Resolved Fluorescence (HTRF)-based cell-based high throughput dose response assay for antagonists of the orexin 1 receptor (OX1R; HCRTR1). [Related pubchem assays (depositor defined):AID434989, AID435008, AID463079, AID485270, AID492963, AID492964, AID492965, AID493232, AID504717, AID504718]. The format is functional.

The target of experiment [2] is T2, Orexin receptor type 2 (Homo sapiens, UniProt O43614).
T2 sequence (O43614 whole entry): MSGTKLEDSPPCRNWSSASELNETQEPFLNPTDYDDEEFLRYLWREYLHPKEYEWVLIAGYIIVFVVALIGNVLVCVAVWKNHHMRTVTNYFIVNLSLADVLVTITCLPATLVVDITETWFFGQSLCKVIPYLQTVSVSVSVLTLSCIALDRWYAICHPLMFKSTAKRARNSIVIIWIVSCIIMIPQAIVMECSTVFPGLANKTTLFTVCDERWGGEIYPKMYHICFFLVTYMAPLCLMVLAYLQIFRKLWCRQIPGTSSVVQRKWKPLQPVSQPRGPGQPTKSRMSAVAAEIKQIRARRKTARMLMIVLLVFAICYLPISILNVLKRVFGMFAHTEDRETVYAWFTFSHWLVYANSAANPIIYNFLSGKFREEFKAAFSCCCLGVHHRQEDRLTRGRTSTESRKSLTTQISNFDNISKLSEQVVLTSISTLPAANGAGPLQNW
Description: Counterscreen assay for antagonists of the orexin 1 receptor (OX1R; HCRTR1): Homogeneous Time Resolved Fluorescence (HTRF)-based cell-based dose response assay for antagonists of the orexin 2 receptor (OX2R; HCRTR2), run by assay provider. The format is functional.

A short description of experiment [3]: HEp-2 cell cytotoxicity, dose response, cytotoxicity control for RSV inhibitor project, HTS (AID 2410). The format is functional. As to conditions: human respiratory syncytial virus.
The nature of experiment [4]: cells.
Experiment [5] in a line: Counterscreen for antagonists of the orexin 1 receptor (OX1R; HCRTR1): Fluorescence-based cell-based high throughput dose response assay to identify antagonists of the parental CHO cell line. [Related pubchem assays (depositor defined):AID434989, AID435008, AID463079, AID485270, AID492963, AID492964, AID492965, AID493232, AID504699, AID504701]. The format is functional.

Experiment [6] deals with T1, Orexin/Hypocretin receptor type 1. Description: Fluorescence-based cell-based high throughput dose response assay for antagonists of the orexin 1 receptor (OX1R; HCRTR1). [Related pubchem assays (depositor defined):AID434989, AID435008, AID463079, AID485270, AID492963, AID492964, AID492965, AID493232, AID504717, AID504718]. The experiment is classed as functional.
Experiment [7] relates to CHO-K1. Put plainly: Counterscreen for antagonists of the orexin 1 receptor (OX1R; HCRTR1): Homogeneous time resolved fluorescence (HTRF)-based cell-based dose response assay to identify antagonists of the parental CHO-K1 cell line. [Related pubchem assays (depositor defined):AID434989, AID435008, AID463079, AID485270, AID492963, AID492964, AID492965, AID493232, AID504699, AID504701]. The format is functional. As to conditions: Cricetulus griseus.

Experiment [8] has as its target T2, Orexin receptor type 2. Description: Counterscreen assay for antagonists of the orexin 1 receptor (OX1R; HCRTR1): Fluorescence-based cell-based dose response assay for antagonists of the orexin 2 receptor (OX2R; HCRTR2), run by assay provider. The experiment is classed as functional.
In experiment [9] the target is Ras and Rab interactor 1/Tyrosine-protein kinase ABL1 (Homo sapiens, UniProt P00519+Q13671). The experiment is classed as functional.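 Note: biochemical TR-FRET dose-response test measuring inhibition of binding between Rin1 and Abl proteins.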
The target of experiment [10] is T3, Adenosylmethionine-8-amino-7-oxononanoate aminotransferase (Mycobacterium tuberculosis, UniProt P9WQ81).
T3 sequence (P9WQ81 whole entry): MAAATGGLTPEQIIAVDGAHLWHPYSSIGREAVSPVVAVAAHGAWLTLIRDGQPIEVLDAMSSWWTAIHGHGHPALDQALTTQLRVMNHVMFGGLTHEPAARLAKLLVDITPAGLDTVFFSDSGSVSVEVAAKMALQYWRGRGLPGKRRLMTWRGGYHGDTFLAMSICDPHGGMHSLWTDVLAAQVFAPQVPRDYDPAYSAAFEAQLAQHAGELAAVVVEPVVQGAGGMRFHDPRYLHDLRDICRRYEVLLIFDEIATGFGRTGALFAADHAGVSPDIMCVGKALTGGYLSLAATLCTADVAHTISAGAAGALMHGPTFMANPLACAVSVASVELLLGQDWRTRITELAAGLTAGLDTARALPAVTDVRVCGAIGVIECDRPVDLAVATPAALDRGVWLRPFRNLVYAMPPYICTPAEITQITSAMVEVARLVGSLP
Put plainly: Mycobacterium tuberculosis BioA enzyme inhibitor Measured in Biochemical System Using Plate Reader - 2163-02_Inhibitor_Dose_CherryPick_Activity. The experiment is classed as functional, Mycobacterium tuberculosis UT205.

Experiment [11] is described as follows: growth suppression of PTEN-null colon cells, dose response, cell-based, HCT116 PTEN knockout (AID 1047).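 Note: HCT116 colon tumor cells with PTEN knocked out; cells exposed to compound for 60 hours before readout; potency for loss of cell viability measured by luminescence.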 The experiment is classed as functional.
Experiment [12] addresses Glucose-6-phosphate 1-dehydrogenase (Homo sapiens, UniProt P11413). Description: human G6PD enzyme inhibitors, dose response, selectivity assay for P. falciparum G6PD inhibitor project, biochemical, fluorescence (AID 504792). The experiment is classed as functional.
Experiment [13] is described as follows: growth suppression of beta-catenin-knockout colon cells, dose response, cell-based, HCT116, human colon tumor (AID 1045).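 Note: HCT116 colon tumor cells with beta catenin knocked out; cells exposed to compound for 60 hours.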 The experiment is classed as functional.
The test system of experiment [14] is INS1. Put plainly: beta cell apoptosis inhibitors, cytokine rescue, dose response, luminescence, retest (AID 449756).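 Note: cell death triggered by IL-1 beta plus TNF-alpha plus IFN-gamma mixture; protective hits raise ATP signal compared with cytokine alone wells.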 The experiment is classed as functional, cell-based. As to conditions: Rattus norvegicus.
The nature of experiment [15]: Luminescence Cell-Based Dose Confirmation HTS to Identify Inhibitors of Platelet Dense Granule Release. [Related pubchem assays: 1663 (Primary HTS), 1678 (Summary of Project)]. The experiment is classed as functional.
The target of experiment [16] is T4, Cytochrome P450 1A2 (Homo sapiens, UniProt P05177).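 Note: PubChem cytochrome P450 panel assay, CYP1A2 panel member.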
T4 sequence (P05177 whole entry): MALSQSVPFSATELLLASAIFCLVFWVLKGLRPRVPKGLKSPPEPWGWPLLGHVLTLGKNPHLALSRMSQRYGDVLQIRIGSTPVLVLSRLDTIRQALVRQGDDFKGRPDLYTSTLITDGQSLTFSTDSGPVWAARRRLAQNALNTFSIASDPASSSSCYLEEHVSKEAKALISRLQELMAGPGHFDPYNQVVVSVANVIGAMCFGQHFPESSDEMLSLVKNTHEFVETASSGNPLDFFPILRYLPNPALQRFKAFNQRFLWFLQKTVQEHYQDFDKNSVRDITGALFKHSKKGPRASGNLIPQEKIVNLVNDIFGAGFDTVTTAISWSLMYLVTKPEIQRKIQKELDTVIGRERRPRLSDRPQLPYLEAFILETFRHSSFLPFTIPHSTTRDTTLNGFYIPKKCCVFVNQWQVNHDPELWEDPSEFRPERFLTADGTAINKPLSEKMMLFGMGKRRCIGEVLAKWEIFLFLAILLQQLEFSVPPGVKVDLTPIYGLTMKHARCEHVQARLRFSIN

Experiment [17] concerns the target Luciferin 4-monooxygenase (Photinus pyralis, UniProt P08659). Put plainly: firefly luciferase enzyme inhibitors, dose response, biochemical, luminescence (AID 1891).
Experiment [18] deals with Cytochrome P450 2C19 (Homo sapiens, UniProt P33261). Description: Cytochrome panel assay with activity outcomes. Panel member name: p450-cyp2c19 Compounds with AC50 equal or less than 10 uM are considered active. The experiment is classed as functional. The following applies: read-out: AC50.
Experiment [19] deals with Cytochrome P450 3A4 (Homo sapiens, UniProt P08684).
Experiment [20] in a line: Fluorescence-based cell-based high throughput dose response assay for inhibitors of the interaction of nucleotide-binding oligomerization domain containing 2 (NOD2) and the receptor-interacting serine-threonine kinase 2 (RIPK2). As to conditions: Homo sapiens. The format is functional.
Experiment [21] addresses Aurora kinase B (Homo sapiens, UniProt Q96GD4). The format is functional.
For experiment [22], the target named is T5, Aurora kinase A (Homo sapiens, UniProt O14965).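 Note: value from the Navigating the Kinome kinase panel profiling, panel entry STK6.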
T5 sequence (O14965 whole entry): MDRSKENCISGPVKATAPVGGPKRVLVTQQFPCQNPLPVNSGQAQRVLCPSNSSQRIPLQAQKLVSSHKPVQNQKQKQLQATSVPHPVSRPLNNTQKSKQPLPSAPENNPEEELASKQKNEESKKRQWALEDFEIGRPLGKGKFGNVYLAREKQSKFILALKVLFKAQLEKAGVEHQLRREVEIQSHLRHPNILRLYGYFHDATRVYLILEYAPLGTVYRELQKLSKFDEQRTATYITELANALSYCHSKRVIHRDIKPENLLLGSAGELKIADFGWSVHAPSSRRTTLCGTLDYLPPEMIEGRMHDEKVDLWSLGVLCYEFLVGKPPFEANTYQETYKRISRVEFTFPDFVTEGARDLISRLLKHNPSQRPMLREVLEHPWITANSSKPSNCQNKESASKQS
The experiment is classed as functional.

A short description of experiment [23]: intracellular Trypanosoma cruzi inhibitors in host cells – cell-based, plate reader, cherry-pick samples, set 3, dose response (AID 651818).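 Note: compounds incubated with infected cells for about four days.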 The experiment is classed as functional.

Ras and Rab interactor 1/Tyrosine-protein kinase ABL1, sequence (P00519 whole entry): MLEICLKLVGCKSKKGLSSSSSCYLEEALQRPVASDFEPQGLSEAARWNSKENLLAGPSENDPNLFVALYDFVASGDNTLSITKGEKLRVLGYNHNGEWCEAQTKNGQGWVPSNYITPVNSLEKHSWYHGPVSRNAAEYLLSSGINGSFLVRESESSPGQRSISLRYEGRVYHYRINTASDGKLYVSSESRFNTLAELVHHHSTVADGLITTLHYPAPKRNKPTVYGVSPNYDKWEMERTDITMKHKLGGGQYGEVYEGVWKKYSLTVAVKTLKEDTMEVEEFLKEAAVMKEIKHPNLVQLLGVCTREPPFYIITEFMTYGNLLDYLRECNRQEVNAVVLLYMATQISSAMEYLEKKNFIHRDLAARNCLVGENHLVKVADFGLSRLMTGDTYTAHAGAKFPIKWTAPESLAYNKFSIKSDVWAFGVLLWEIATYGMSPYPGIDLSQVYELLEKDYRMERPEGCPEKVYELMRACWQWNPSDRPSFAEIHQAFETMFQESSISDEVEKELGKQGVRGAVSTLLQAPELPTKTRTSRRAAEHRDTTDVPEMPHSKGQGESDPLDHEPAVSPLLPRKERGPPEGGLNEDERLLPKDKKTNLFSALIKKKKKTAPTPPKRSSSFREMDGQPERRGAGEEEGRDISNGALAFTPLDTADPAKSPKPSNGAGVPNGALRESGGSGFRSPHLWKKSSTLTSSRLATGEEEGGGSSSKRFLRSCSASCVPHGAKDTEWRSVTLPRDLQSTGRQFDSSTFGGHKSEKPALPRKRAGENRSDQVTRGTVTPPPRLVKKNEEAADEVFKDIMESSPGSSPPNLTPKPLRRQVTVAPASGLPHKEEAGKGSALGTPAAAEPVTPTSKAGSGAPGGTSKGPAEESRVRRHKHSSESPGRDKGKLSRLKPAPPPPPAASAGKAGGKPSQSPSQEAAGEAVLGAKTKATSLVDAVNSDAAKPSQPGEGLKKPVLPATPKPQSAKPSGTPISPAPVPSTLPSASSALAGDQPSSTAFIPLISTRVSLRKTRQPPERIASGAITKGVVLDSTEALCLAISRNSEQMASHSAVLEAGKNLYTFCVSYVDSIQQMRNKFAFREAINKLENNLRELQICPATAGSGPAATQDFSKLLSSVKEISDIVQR
Ras and Rab interactor 1/Tyrosine-protein kinase ABL1, sequence (Q13671 whole entry): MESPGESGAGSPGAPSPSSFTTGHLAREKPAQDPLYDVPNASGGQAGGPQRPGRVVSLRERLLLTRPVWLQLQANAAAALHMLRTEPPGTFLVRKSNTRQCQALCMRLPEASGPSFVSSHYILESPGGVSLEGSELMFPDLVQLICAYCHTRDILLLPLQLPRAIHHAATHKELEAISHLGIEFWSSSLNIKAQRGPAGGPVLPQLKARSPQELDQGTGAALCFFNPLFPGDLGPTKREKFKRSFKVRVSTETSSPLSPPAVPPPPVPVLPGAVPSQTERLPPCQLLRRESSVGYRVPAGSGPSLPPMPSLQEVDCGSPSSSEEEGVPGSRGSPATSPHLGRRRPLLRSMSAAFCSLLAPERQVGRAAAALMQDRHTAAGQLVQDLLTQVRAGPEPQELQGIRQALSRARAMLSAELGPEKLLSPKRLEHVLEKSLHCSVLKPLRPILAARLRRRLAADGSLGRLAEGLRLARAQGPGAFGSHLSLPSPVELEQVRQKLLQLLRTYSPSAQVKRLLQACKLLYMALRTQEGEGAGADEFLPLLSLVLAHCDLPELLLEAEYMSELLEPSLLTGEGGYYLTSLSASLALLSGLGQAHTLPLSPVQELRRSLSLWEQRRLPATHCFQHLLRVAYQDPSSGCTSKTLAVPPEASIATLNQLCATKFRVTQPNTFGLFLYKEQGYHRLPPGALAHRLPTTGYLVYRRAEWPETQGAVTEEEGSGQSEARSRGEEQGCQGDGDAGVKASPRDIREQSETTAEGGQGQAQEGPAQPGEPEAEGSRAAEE
Cytochrome P450 3A4, sequence (P08684 whole entry, the tested form may be a part): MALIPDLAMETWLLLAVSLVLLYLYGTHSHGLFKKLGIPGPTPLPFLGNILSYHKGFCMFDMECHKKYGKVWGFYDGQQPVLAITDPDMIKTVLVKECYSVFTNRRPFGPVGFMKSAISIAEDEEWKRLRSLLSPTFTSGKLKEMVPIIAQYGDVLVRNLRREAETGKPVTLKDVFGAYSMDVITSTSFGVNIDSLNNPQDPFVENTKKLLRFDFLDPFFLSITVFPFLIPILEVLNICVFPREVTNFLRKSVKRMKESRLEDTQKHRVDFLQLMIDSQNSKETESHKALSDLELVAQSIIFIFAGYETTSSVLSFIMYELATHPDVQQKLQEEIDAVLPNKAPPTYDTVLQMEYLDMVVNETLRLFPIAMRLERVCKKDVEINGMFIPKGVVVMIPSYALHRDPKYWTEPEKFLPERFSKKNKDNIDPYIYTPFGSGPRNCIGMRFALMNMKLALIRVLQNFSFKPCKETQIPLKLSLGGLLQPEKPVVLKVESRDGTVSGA
Aurora kinase B, sequence (Q96GD4 whole entry): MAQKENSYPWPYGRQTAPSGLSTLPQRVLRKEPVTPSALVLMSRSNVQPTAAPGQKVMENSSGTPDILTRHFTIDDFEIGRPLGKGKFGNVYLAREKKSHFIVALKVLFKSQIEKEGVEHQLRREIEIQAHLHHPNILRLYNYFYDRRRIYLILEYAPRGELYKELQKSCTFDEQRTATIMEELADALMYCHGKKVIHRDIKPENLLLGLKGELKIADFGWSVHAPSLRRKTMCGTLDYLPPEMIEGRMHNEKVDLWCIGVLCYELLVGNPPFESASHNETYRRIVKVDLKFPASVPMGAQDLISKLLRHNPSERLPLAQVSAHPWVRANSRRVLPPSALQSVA
Cytochrome P450 2C19, sequence (P33261 whole entry): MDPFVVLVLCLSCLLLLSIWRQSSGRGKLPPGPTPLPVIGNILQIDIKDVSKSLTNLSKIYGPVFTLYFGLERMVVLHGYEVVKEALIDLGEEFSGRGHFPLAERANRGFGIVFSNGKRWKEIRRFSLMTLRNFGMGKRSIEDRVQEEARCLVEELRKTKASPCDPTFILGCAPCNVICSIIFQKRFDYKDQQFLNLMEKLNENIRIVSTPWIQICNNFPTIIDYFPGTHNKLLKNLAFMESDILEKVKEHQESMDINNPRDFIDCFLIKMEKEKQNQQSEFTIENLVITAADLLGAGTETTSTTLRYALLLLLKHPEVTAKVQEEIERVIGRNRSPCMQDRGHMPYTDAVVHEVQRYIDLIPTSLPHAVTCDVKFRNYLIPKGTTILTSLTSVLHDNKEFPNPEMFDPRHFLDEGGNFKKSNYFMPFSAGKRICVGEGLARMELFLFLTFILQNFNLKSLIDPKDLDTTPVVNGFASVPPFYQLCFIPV
Glucose-6-phosphate 1-dehydrogenase, sequence (P11413 whole entry): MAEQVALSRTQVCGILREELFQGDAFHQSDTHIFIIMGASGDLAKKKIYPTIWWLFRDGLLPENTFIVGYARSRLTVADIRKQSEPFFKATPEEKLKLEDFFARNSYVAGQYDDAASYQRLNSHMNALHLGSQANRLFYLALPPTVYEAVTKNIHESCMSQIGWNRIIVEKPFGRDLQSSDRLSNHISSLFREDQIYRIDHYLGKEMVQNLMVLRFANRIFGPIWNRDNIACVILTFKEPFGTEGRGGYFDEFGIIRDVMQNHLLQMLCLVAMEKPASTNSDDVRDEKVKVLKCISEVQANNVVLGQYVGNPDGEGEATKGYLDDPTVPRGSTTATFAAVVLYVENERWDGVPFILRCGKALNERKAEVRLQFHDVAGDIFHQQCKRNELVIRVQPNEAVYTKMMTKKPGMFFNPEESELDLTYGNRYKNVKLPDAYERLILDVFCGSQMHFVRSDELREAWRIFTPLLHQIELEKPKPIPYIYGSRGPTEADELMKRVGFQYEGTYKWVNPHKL
Luciferin 4-monooxygenase, sequence (P08659 whole entry): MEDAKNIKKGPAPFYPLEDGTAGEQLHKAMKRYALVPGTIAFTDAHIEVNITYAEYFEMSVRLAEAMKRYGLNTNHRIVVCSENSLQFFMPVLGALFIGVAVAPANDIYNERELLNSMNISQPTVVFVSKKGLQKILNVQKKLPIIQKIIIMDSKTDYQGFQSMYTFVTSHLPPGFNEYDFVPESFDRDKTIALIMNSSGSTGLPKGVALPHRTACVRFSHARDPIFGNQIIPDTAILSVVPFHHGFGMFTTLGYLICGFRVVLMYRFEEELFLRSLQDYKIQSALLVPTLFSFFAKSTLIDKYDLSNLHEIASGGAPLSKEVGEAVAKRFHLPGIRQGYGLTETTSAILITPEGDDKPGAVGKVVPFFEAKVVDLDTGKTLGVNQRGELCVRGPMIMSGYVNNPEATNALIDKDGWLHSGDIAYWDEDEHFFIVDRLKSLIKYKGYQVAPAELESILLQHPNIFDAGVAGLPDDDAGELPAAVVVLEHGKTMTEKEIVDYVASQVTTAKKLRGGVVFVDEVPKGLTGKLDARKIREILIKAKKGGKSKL

For the compound `COc1ccc(CN2CC[C@H]3C=CC[C@@H](C(=O)Nc4ccc(Cl)c(C(F)(F)F)c4)[C@H]3C2=O)cc1OC`, the IC50 was 0.071 µM (active) in experiment [1]; > 50 µM (inactive) in experiment [2]; 23.6 µM (active) in experiment [4]; > 49.8 µM (inactive) in [5]; 3.22 µM (active) in [6]; > 66.2 µM (inactive) in experiment [7]. Also, the IC50 in [8] is > 88.8 µM (inactive). In addition, the CC50 in experiment [3] was 42.4 µM (active).

`Cc1ccccc1CN1C[C@@H]2C[C@@H](c3ccc4nsnc4c3)N3CCC[C@@]23C1=O`: the IC50 in [9] was 34.1 µM (inactive).

For the compound `COC(=O)C1CCN(C(c2ccc(OC)c(OC)c2)c2sc3nc(C)nn3c2O)CC1` (stereo not given), in [10], the AC50 is 17.4 µM (active).

In the case of `CCC(CO)N1C(C)=CC(=Cc2sc3ccccc3[n+]2Cc2ccccc2)C=C1C` (stereo not given), the figures for the EC50 in experiment [11] and in experiment [13] were 1.19 µM (active) and 0.775 µM (active), respectively. For the same compound, in experiment [12], the IC50 was > 80 µM (inactive). The AC50 in experiment [10] was 2.73 µM (active); in experiment [14], 0.613 µM (active).

Turning to `CCOC(=O)N1CCC(NC(=O)CCc2nc(C3=CCN(C)CC3)no2)CC1`, the EC50 in experiment [15] and in experiment [17] was > 112 µM (not active) in each case. Also, the AC50 in [16] was 1 µM (inconclusive); in [18], 11.2 µM (inconclusive); in experiment [19] it was 25.1 µM (inconclusive). The IC50 in experiment [9] is 5.11 µM (active).

With `O=C(N=Nc1c(O)[nH]c2ccccc12)c1cccc(S(=O)(=O)Nc2ccccc2Cl)c1`, the IC50 was 1.01 µM (active) in experiment [1]; > 50 µM (inactive) in [2]; > 49.8 µM (inactive) in [5]; > 49.8 µM (inactive) in experiment [6]; > 66.2 µM (inactive) in experiment [7]; > 88.8 µM (inactive) in experiment [8].

Take `CC(C)(O)c1cc2ccc(C#Cc3ccsc3)cc2c(=O)o1`: the IC50 is 4.32 µM (active) in experiment [1]; > 50 µM (inactive) in experiment [2]; > 49.7 µM (inactive) in experiment [5]; 9.4 µM (active) in experiment [6]; > 66.2 µM (inactive) in experiment [7]; > 88.8 µM (inactive) in [8].

Consider `CCOC(=O)c1c(SCCN2CCCC2)n(-c2ccccc2)c(=S)n(-c2ccccc2)c1=O`, for which, in experiment [20], the IC50 is 1.09 µM (active).

For `CC(Nc1cncc(-n2cnc3ccccc32)n1)c1ccc(F)cc1` (stereo not given), the results for the Ki in experiment [21] and in experiment [22] were 0.0794 µM (active) and 1.26 µM (active), respectively.

As for `C[C@@H]1CN([C@@H](C)CO)C(=O)c2cccc(NC(=O)CCCCCC(=O)Nc3ccccc3N)c2O[C@H]1CN(C)CC1CCCCC1`, the AC50 in [23] is 3.58 µM (active).

In the case of `C[C@@H]1CN([C@H](C)CO)C(=O)Cc2cc(NS(=O)(=O)c3ccc(Cl)cc3)ccc2O[C@@H]1CN(C)S(=O)(=O)c1ccc(F)cc1`, in experiment [23], the AC50 was 7.57 µM (active).

Consider `O=C(NC1CCCc2c1cnn2-c1cc(F)cc(F)c1)c1ccc[n+]([O-])c1` (stereo not given), for which the AC50 in experiment [10] is 4.29 µM (active).

For the compound `C[C@H](CO)N1C[C@H](C)[C@H](CN(C)Cc2ccc(C(=O)Nc3ccccc3N)cc2)Oc2ccc(NS(=O)(=O)c3ccc(Cl)cc3)cc2CC1=O`, the AC50 in experiment [23] was 1.91 µM (active).
